Where two headings read alike, the source gives them in different places.
Assays:
[1] = test system: lens epithelial cell; conditions: in vitro; cited from earlier work
[2] = test system: residual lens epithelial cells; conditions: rabbit, in vivo
[3] = test system: residual lens epithelial cells; format: cell-based, human
[4] = test system: lens epithelial cells; conditions: rabbit, in vivo
[5] = test system: lens epithelial cells; format: cell-based, human
[6] = test system: trabecular meshwork; conditions: cited from earlier work
[7] = test system: residual lens epithelial cells; assay: Intracapsular latrunculin-B during extracapsular lens extraction in rabbits (Example 1); format: in vivo, rabbit; conditions: 2 μM
[8] = test system: lens, lens capsule or corneal endothelium and other adjacent tissues; conditions: outflow facility-effective concentrations, infusion for 45-90 min; cited from earlier work
[9] = 1 ml intracapsular for 10 minutes then 5 min irrigation/aspiration, vehicle 0.25% DMSO, light microscopy of fixed capsular bag

Compound	Inhibiting lens epithelial cell proliferation [1]	Lens epithelial cells removed in comparison to control vehicle, determined by LM [2]	Lens epithelial cells removed in comparison to control vehicle, determined by LM [3]	PCO formation or severity in comparison to control vehicle [4]	PCO formation or severity in comparison to control vehicle [5]	other results
O=c1[nH]cc(F)c(=O)[nH]1 [5-fluorouracil]	effective					
CC1CNCCN1S(=O)(=O)c1cccc2cnccc12 (stereo not drawn) [H-7, 1-(5-isoquinolinyl-sulfonyl)-2-methylpiperazine]		more lens epithelial cells be removed	more lens epithelial cells be removed	prevent the formation or reduce the severity of PCO	prevent the formation or reduce the severity of PCO	Outflow facility ([6]; monkey, in vivo): significantly increased
COc1cc2c(c(OC)c1OC)-c1ccc(OC)c(=O)cc1[C@@H](NC(C)=O)CC2 [colchicine]	effective					
COc1cccc2c1C(=O)c1c(O)c3c(c(O)c1C2=O)C[C@@](O)(C(C)=O)C[C@@H]3O[C@H]1C[C@H](N)[C@H](O)[C@H](C)O1 [daunomycin]	effective					
C/C1=C/C(=O)O[C@@H]2C[C@@H](CC[C@H](C)/C=C\CC1)O[C@@](O)([C@@H]1CSC(=O)N1)C2 [latrunculin-B]		more lens epithelial cells be removed	more lens epithelial cells be removed	prevent the formation or reduce the severity of PCO	prevent the formation or reduce the severity of PCO	Clearance of residual lens epithelial cells during the extracapsular lens extraction [7]: facilitated the clearance; Area A (dirty area with dense residual materials): treated eye versus vehicle-treated eye [7, 9]: no difference; Area B (relatively clean area): residual lens epithelial cells versus vehicle-treated eye [7, 9]: fewer residual lens epithelial cells; Outflow facility ([6]; living monkeys, all concentrations named in b65 (latrunculin-B 0.5-2 μM, 0.01% topical; H-7 100-300 μM, 5% topical)): significantly increased; Observable damage to the lens, lens capsule or corneal endothelium and other adjacent tissues [8]: did not induce any observable damage
CO[C@@]12[C@H](COC(N)=O)C3=C(C(=O)C(C)=C(N)C3=O)N1C[C@@H]1N[C@@H]12 [mitomycin C]	effective					

— patent US20060271062A1 (priority 2005, published 2006)
